Our source for the IC50 values is patent publication US20220298160A1, “COMPOUNDS USEFUL IN HIV THERAPY” (priority 2019, published 2022).

For test [1], the system named is HIV pseudotyped virus (NL4-3 provirus), WT. Kind of test: PSV assay (pseudotyped virus assay), WT. The conditions noted are these: U373 cells expressing human CD4 and CXCR4 or CCR5, luciferase signal after 3 days of culture.
Excerpt: A pseudotyped virus assay (PSV) was used to assess the potency of the HIV inhibitor. Replication defective virus was produced by co-transfection of a plasmid containing an NL4-3 provirus [containing a mutation in the envelope open reading frame (ORF) and a luciferase reporter gene replacing the nef ORF] and a CMV-promoter expression plasmid containing an ORF for various HIV gp160 envelope clones. The harvested virus was stored at −80 C in small aliquots and the titer of the virus measured to produce a robust signal for antiviral assays.
The PSV assay was performed by using U373 cells stably transformed to express human CD4, the primary receptor for HIV entry and either human CXCR4 or human CCR5 which are the co-receptors required for HIV entry as target cells for infection. […] This dose-range was applied to U373 cells and the pre-made pseudotyped virus added. The amount of luciferase signal produced after 3 days of culture was used to reflect the level of pseudotyped virus infection. An IC50, or the concentration of inhibitor required to reduce PSV infection by 50% from the infection containing no inhibitor was calculated. […] IC50 values were determined from a 10 point dose response curve using 3-4-fold serial dilution for each compound, which spans a concentration range >1000 fold.
For test [2], the system named is HIV pseudotyped virus (NL4-3 provirus), M184V. The class given is cell-based. As to conditions: PSV assay; U373 cells expressing human CD4 and CXCR4 or CCR5; luciferase signal after 3 days of culture.
Setting [3] is: Human immunodeficiency virus 1, NL43, in Homo sapiens, 72 h, read-out: WT IC50 (μM), PSV assay.

Like-named read-outs stand apart in the source and are kept apart here.

One may read the IC50 as the midpoint of a concentration-inhibition curve.

Take `C#C[C@]1(CO)O[C@@H](n2cnc3c(NC(=O)OC(COCCCCCCCCC)COC(=O)CCCCCCCC)nc(F)nc32)C[C@@H]1O` (single isomer, unassigned) [Example 35]: the results for the IC50 in test [1] (setting [3]) and in test [2] were 0.0112 µM and 0.0331 µM, respectively.
With `C#C[C@]1(CO)O[C@@H](n2cnc3c(NC(=O)OC(COCCCCCCCCC)COC(=O)CCCCCCCC)nc(F)nc32)C[C@@H]1O` (single isomer, unassigned) [Example 36], the half-inhibitory concentration (IC50) in test [1] (read-out: WT IC50, PSV assay) came out at 0.0085 µM; in test [2], 0.0229 µM.
For `C#C[C@]1(CO)O[C@@H](n2cnc3c(NC(=O)OC(COCCCCC)COC(=O)CCCC)nc(F)nc32)C[C@@H]1O` (single isomer, unassigned) [Example 37], the concentration for half-maximal inhibition (IC50) in test [1] (setting [3]) was determined as 0.0095 µM; in test [2], 0.0324 µM.
In the case of `C#C[C@]1(CO)O[C@@H](n2cnc3c(NC(=O)OC(COCCCCC)COC(=O)CCCC)nc(F)nc32)C[C@@H]1O` (single isomer, unassigned) [Example 38], the IC50 in test [1] (read-out: WT IC50, PSV assay) amounted to 0.007 µM; in test [2], 0.0234 µM.
`C#C[C@]1(COC(=O)NCCCCCCCCCCCCCCCCCC)O[C@@H](n2cnc3c(N)nc(F)nc32)C[C@@H]1O` [Example 1, ((2R,3S,5R)-5-(6-amino-2-fluoro-9H-purin-9-yl)-2-ethynyl-3-hydroxytetrahydrofuran-2-yl)methyl octadecylcarbamate]: the IC50 in test [1] (setting [3]) and in test [2] was above 25 µM each time.
Regarding `C#C[C@]1(COC(=O)NCCCCCCCC)O[C@@H](n2cnc3c(N)nc(F)nc32)C[C@@H]1O` [Example 2, ((2R,3S,5R)-5-(6-amino-2-fluoro-9H-purin-9-yl)-2-ethynyl-3-hydroxytetrahydrofuran-2-yl)methyl octylcarbamate], the IC50 in test [1] (setting [3]) and in test [2] was above 25 µM in each case.
With `C#C[C@]1(COC(=O)NCCCCCCCCCCCC)O[C@@H](n2cnc3c(N)nc(F)nc32)C[C@@H]1O` [Example 3, ((2R,3S,5R)-5-(6-amino-2-fluoro-9H-purin-9-yl)-2-ethynyl-3-hydroxytetrahydrofuran-2-yl)methyl dodecylcarbamate], the IC50 in test [1] (setting [3]) was found to be 2.01 µM; in test [2], 8.17 µM.
`C#C[C@]1(COC(=O)NCCCCC)O[C@@H](n2cnc3c(N)nc(F)nc32)C[C@@H]1O` [Example 4, ((2R,3S,5R)-5-(6-amino-2-fluoro-9H-purin-9-yl)-2-ethynyl-3-hydroxytetrahydrofuran-2-yl)methyl pentylcarbamate]: the values for the IC50 in test [1] (setting [3]) and in test [2] were 2.66 µM and above 25 µM, respectively.
For `C#C[C@]1(COC(=O)NC)O[C@@H](n2cnc3c(N)nc(F)nc32)C[C@@H]1O` [Example 5, ((2R,3S,5R)-5-(6-amino-2-fluoro-9H-purin-9-yl)-2-ethynyl-3-hydroxytetrahydrofuran-2-yl)methyl methylcarbamate], the IC50 in test [1] (setting [3]) is 15.4 µM; in test [2] it was above 25 µM.
As for `C#C[C@]1(COC(=O)NC(C)C)O[C@@H](n2cnc3c(N)nc(F)nc32)C[C@@H]1O` [Example 6, ((2R,3S,5R)-5-(6-amino-2-fluoro-9H-purin-9-yl)-2-ethynyl-3-hydroxytetrahydrofuran-2-yl)methyl isopropylcarbamate], the IC50 turned out to be 0.56 µM in test [1] (setting [3]) and 1.08 µM in test [2].
For `C#C[C@]1(COC(=O)N(CC)CC)O[C@@H](n2cnc3c(N)nc(F)nc32)C[C@@H]1O` [Example 7, ((2R,3S,5R)-5-(6-amino-2-fluoro-9H-purin-9-yl)-2-ethynyl-3-hydroxytetrahydrofuran-2-yl)methyl diethylcarbamate] the same measures were 1.28 µM and 2.41 µM.
For `C#C[C@]1(COC(=O)NC(C)(C)C)O[C@@H](n2cnc3c(N)nc(F)nc32)C[C@@H]1O` [Example 8, ((2R,3S,5R)-5-(6-amino-2-fluoro-9H-purin-9-yl)-2-ethynyl-3-hydroxytetrahydrofuran-2-yl)methyl tert-butylcarbamate] the same measures were 0.142 µM and 1.13 µM.
Consider `C#C[C@]1(COC(=O)OC(COC(=O)CCCCCCCC)COC(=O)CCCCCCCC)O[C@@H](n2cnc3c(N)nc(F)nc32)C[C@@H]1O` [Example 9, 2-(((((2R,3S,5R)-5-(6-amino-2-fluoro-9H-purin-9-yl)-2-ethynyl-3-hydroxytetrahydrofuran-2-yl)methoxy)carbonyl)oxy)propane-1,3-diyl dinonanoate], for which the figures for the half-inhibitory concentration (IC50) in test [1] (setting [3]) and in test [2] were 0.0049 µM and 0.0221 µM, respectively.
For `C#C[C@]1(COC(=O)OC2COC(=O)CCCCCCCCCCCC(=O)OC2)O[C@@H](n2cnc3c(N)nc(F)nc32)C[C@@H]1O` [Example 10, ((2R,3S,5R)-5-(6-amino-2-fluoro-9H-purin-9-yl)-2-ethynyl-3-hydroxytetrahydrofuran-2-yl)methyl (6,18-dioxo-1,5-dioxacyclooctadecan-3-yl) carbonate] the same measures were 0.0097 µM and 0.0313 µM.
Consider `C#C[C@]1(CO)O[C@@H](n2cnc3c(N)nc(F)nc32)C[C@@H]1OC(=O)OCc1ccc(OC(=O)CCCCCCCCCCCCCCCCCCC)cc1` [Example 11, 4-((((((2R,3S,5R)-5-(6-amino-2-fluoro-9H-purin-9-yl)-2-ethynyl-2-(hydroxymethyl)tetrahydrofuran-3-yl)oxy)carbonyl)oxy)methyl)phenyl icosanoate], for which the IC50 worked out at 2.31 µM in test [1] (setting [3]) and 3.21 µM in test [2].
The matching figures for `C#C[C@]1(CO)O[C@@H](n2cnc3c(N)nc(F)nc32)C[C@@H]1OC(=O)OCc1ccc(OC(=O)CCCCCCCCCCCCC)cc1` [Example 12, 4-((((((2R,3S,5R)-5-(6-amino-2-fluoro-9H-purin-9-yl)-2-ethynyl-2-(hydroxymethyl)tetrahydrofuran-3-yl)oxy)carbonyl)oxy)methyl)phenyl tetradecanoate]: 0.017 µM and 0.0663 µM.
Consider `C#C[C@]1(COC(=O)OCc2ccc(OC(=O)CCCCCCCCCCCCC)cc2)O[C@@H](n2cnc3c(N)nc(F)nc32)C[C@@H]1O` [Example 13, 4-((((((2R,3S,5R)-5-(6-amino-2-fluoro-9H-purin-9-yl)-2-ethynyl-3-hydroxytetrahydrofuran-2-yl)methoxy)carbonyl)oxy)methyl)phenyl tetradecanoate], for which the IC50 in test [1] (setting [3]) was determined as 0.0072 µM; in test [2], 0.0178 µM.
Regarding `C#C[C@]1(COC(=O)OCc2ccc(OC(=O)CCCCCCCCCCCCCCCCCCC)cc2)O[C@@H](n2cnc3c(N)nc(F)nc32)C[C@@H]1O` [Example 14, 4-((((((2R,3S,5R)-5-(6-amino-2-fluoro-9H-purin-9-yl)-2-ethynyl-3-hydroxytetrahydrofuran-2-yl)methoxy)carbonyl)oxy)methyl)phenyl icosanoate], the IC50 was found to be 1.55 µM in test [1] (setting [3]) and 2.41 µM in test [2].
For `C#C[C@]1(CO)O[C@@H](n2cnc3c(N)nc(F)nc32)C[C@@H]1OC(=O)NCCCCCCCCCCCC` [Example 15, (2R,3S,5R)-5-(6-amino-2-fluoro-9H-purin-9-yl)-2-ethynyl-2-(hydroxymethyl)tetrahydrofuran-3-yl dodecylcarbamate] the same measures were above 15 µM and above 15 µM.
In the case of `C#C[C@]1(CO)O[C@@H](n2cnc3c(N)nc(F)nc32)C[C@@H]1OC(=O)NCCCCCCCCCCCCCCCCCC` [Example 16, (2R,3S,5R)-5-(6-amino-2-fluoro-9H-purin-9-yl)-2-ethynyl-2-(hydroxymethyl)tetrahydrofuran-3-yl octadecylcarbamate], the IC50 in test [1] (setting [3]) is 15 µM; in test [2], 22.4 µM.
For `C#C[C@]1(CO)O[C@@H](n2cnc3c(N)nc(F)nc32)C[C@@H]1OC(=O)NCCCCCCCC` [Example 17, (2R,3S,5R)-5-(6-amino-2-fluoro-9H-purin-9-yl)-2-ethynyl-2-(hydroxymethyl)tetrahydrofuran-3-yl octylcarbamate] the same measures were above 15 µM and above 15 µM.
For `C#C[C@]1(CO)O[C@@H](n2cnc3c(N)nc(F)nc32)C[C@@H]1OC(=O)NC` [Example 18, (2R,3S,5R)-5-(6-amino-2-fluoro-9H-purin-9-yl)-2-ethynyl-2-(hydroxymethyl)tetrahydrofuran-3-yl methylcarbamate] the same measures were 2.03 µM and 9.11 µM.
The matching figures for `C#C[C@]1(CO)O[C@@H](n2cnc3c(N)nc(F)nc32)C[C@@H]1OC(=O)NCCCCC` [Example 19, (2R,3S,5R)-5-(6-amino-2-fluoro-9H-purin-9-yl)-2-ethynyl-2-(hydroxymethyl)tetrahydrofuran-3-yl pentylcarbamate]: 1.77 µM and 9.44 µM.
For `C#C[C@]1(CO)O[C@@H](n2cnc3c(N)nc(F)nc32)C[C@@H]1OC(=O)NC(C)C` [Example 20, (2R,3S,5R)-5-(6-amino-2-fluoro-9H-purin-9-yl)-2-ethynyl-2-(hydroxymethyl)tetrahydrofuran-3-yl isopropylcarbamate], the IC50 in test [1] (setting [3]) was 10.5 µM; in test [2] it was above 25 µM.
The matching figures for `C#C[C@]1(CO)O[C@@H](n2cnc3c(N)nc(F)nc32)C[C@@H]1OC(=O)N(CC)CC` [Example 21, (2R,3S,5R)-5-(6-amino-2-fluoro-9H-purin-9-yl)-2-ethynyl-2-(hydroxymethyl)tetrahydrofuran-3-yl diethylcarbamate]: 14.7 µM and above 25 µM.
The matching figures for `C#C[C@]1(CO)O[C@@H](n2cnc3c(N)nc(F)nc32)C[C@@H]1OC(=O)N1CCC(C)CC1` [Example 22, (2R,3S,5R)-5-(6-amino-2-fluoro-9H-purin-9-yl)-2-ethynyl-2-(hydroxymethyl)tetrahydrofuran-3-yl 4-methylpiperidine-1-carboxylate]: 11.7 µM and above 25 µM.
Take `C#C[C@]1(CO)O[C@@H](n2cnc3c(N)nc(F)nc32)C[C@@H]1OC(=O)NC(C)(C)C` [Example 23, (2R,3S,5R)-5-(6-amino-2-fluoro-9H-purin-9-yl)-2-ethynyl-2-(hydroxymethyl)tetrahydrofuran-3-yl tert-butylcarbamate]: the IC50 in test [1] (setting [3]) and in test [2] was above 25 µM each time.
